Measured values as given in US20130288981A1, “TARGETING SENESCENT CELLS AND CANCER CELLS BY INTERFERENCE WITH JNK AND/OR FOXO4” (Buck Institute for Research on Aging, priority 2012, published 2013).

Columns and labels:
[1] = test system: MCF7 mammary carcinoma cells; assay: Cytochrome C release in MCF7 cells with FOXO4 knockdown treated with 5'-fluoro-uracil; format: cell-based, human; settings: 5 μM, 40 h
Protocol: FIG. 11. Sensitization of melanoma cells other types of cancer to additional types of chemotherapy. A) A375 melanoma cells were incubated with the FOXO4-p53 blocking peptide mix in the presence or absence of 2 μM Cisplatin and after 4 days cellular morphology was visualized. […] B) MCF7 mammary carcinoma cells were infected with the short hairpins against FOXO4 and after puromycin selection treated with 5 μM 5′-fluoro-uracil. 40 h later the percentage Cytochrome C-release was scored. The immunofluorescence panels show staining of Cytochrome C. The top, middle and bottom left panels all show mitochondrial Cytochrome C staining. […] C) B16F10Luc mouse melanoma cells were infected with a mouse-specific short hairpin against FOXO4 and short hairpin #2 against human FOXO4 from FIG. 2 which shares sequence homology with mouse FOXO4. After puromycin selection cells were incubated with 10 μM Cisplatin and after 7 days cellular viability was determined by CellTiter 96® AQueous One Solution Cell Proliferation Assay (MTS).
FIG. 11A: 2×10^5 A375 melanoma cells were plated in 24-well plate chambers. The next day the cells were incubated with 50 μM DBD2-peptide or a mixture of 25 μM DBD2-peptide and 25 μM C-term peptide in the presence or absence of 2 μM Cisplatin. […]

A375 melanoma cells = assay: Surviving fraction (MTS) of A375-shGFP versus A375-shFOXO4 cells treated with chemotherapeutic agents; format: cell-based, human
Protocol: FIG. 12. FOXO4 inhibition on sensitizes A375 melanoma cells to inhibitors of the BRAF/MEK pathway. A) A375 cells stably infected with a control shRNA (shGFP) or an shRNA against FOXO4 (shFOXO4) were treated with the indicated concentrations of the BRAF^V600E-inhibitor PLX4032 and the percentage of the surviving fraction on was determined by Aqueous CellQuant assay either after day 6 (left panel) or day 11 (right panel). Note that for the right panel the cells were refreshed at day 7 with the exact same concentration on of PLX4032. B) Similar experiment as in A), except with the general RAF inhibitor RAF265. C) Similar experiment as in A), except with the MEK inhibitor AZD6244.
FIG. 12A: 2×10^4 A375-shGFP or A375-shFOXO4-2 cells were plated in triplicate in 96-well plate chambers. The next day the cells were incubated with the indicated concentrations of PLX4032 or left untreated. After 6 days the a CellTiter 96® AQueous One Solution Cell Proliferation Assay (MTS) was performed according to the manufacturer's instructions (Promega) to determine the relative number of cells versus Mock treated A375-shGFP or A375-shFOXO4-2 melanoma cells (Left panel). Additionally, in a separate experiment the cells were refreshed at day 7 with the same dose of PLX4032 and left for another 4 days after which the same procedure was performed. […]

JNK1/2 = settings: in vitro and in cultured cells; literature; cited from earlier work
FOXO4 = FOXO4 knockdown by short hairpins: FOXO4 mRNA (QPCR) and punctate FOXO4 staining; format: cell-based, human; settings: HCA2 fibroblasts, 8 days after 10Gy XRAY
Excerpt: FIG. 2. Knockdown of FOXO4 results in apoptosis rather than senescence in DNA-damaged IMR90 fibroblasts. A) Reduction in punctate FOXO4 staining and FOXO4 mRNA expression after 8 days 10Gy XRAY in HCA2 fibroblasts infected […] hairpins targeted at FOXO4. […] B) Increased cytoplasmic Cytochrome C staining (a marker of apoptosis; arrowheads) in DNA-damaged IMR90 cells infected with knockdown against FOXO4. The percentage apoptotic cells is quantified. C) Increased TUNEL staining (a second marker of apoptosis) in similar conditions a B.
FIG. 2A: HCA2 fibroblasts were infected with lentiviral particles containing a control shRNA-encoding vector targeted against a mature sequence in GFP (based on vector PLK0.1, Open Biosystems): 5′-[…]-3′ or two independent sequences in (human) FOXO4, shFOXO4-1: 5′-[…]-3′ and shFOXO4-2: 5′-[…]-3′. Following selection for two days in 0.5 μg/ml Puromycin cells were plated and processed as in FIG. 1 to determine FOXO4 mRNA expression and FOXO4 localization by immunofluorescence. FIG. 2B: IMR90 fibroblasts were infected and treated as in A). Following selection 2×10^5 cells were plated on coverslips and irradiated the next day. […] The percentage of cells with released Cytochrome C staining (translocated from punctual mitochondrial staining to diffuse or absent staining) was determined for 100 cells per condition. […]

Molecule	sensitivity of A375-shFOXO4 versus A375-shGFP melanoma cells (A375 melanoma cells)	knockdown of FOXO4 mRNA and punctate FOXO4 staining (FOXO4)	other results
O=c1[nH]cc(F)c(=O)[nH]1 [5-fluorouracyl]	–	–	sensitization of MCF7 cells by FOXO4 knockdown (Cytochrome C release) [1]: sensitized
N.N.[Cl][Pt][Cl] [Cisplatin]	more sensitive	–	–
dDdQdSdRdPdVdQdPdFdLdQdLdTdTdPdRdKdPdRdPdPdRdRdRdQdRdRdKdKdRG [D-JNK1]	–	–	inhibition of JNK1/2 kinase activity (JNK1/2): selectively blocks access to its substrates
5′-CGTCCACGAAGCAGTTCAAAT-3′ [shFOXO4-2]	–	induce knockdown of FOXO4 mRNA and reduction in punctate FOXO4	–
Cn1c(Nc2ccc(C(F)(F)F)cc2)nc2cc(Oc3ccnc(-c4ncc(C(F)(F)F)[nH]4)c3)ccc21 [RAF265]	more sensitive	–	–
5′-CCAGCTTCAGTCAGCAGTTAT-3′ [shFOXO4-1]	–	induce knockdown of FOXO4 mRNA and reduction in punctate FOXO4	–
